Results taken from PMC6529438 (2019).
Blank lines part the entries; values can stand above or below the molecule they belong to.

Experiments:
Assay in all cases: graphene oxide FRET fluorescence recovery with DNase I amplification
Settings in all cases: 5 mM Mg2+, 15 mM Na+, 20 mM Tris-HCl, 0.001% PEG 900, pH 8.0
[1] = test system: FAM-modified kanamycin aptamer (P2) (DNA, aptamer) TGGGGGTTGAGGCTAAGCCGA
[2] = test system: Cy3-modified sulfadimethoxine aptamer (P1) (DNA, aptamer) GAGGGCAACGAGTGTTTATAGA
[3] = test system: Cy5-modified ampicillin aptamer (P3) (DNA, aptamer) GCGGGCGGTTGTATAGCGG
[4] = 500 ng/mL, mixed aptamers, very weak signal change
[5] = 10-500 ng/mL, room temperature, then 37 °C with DNase I

binding [1, 4]: no | binding [2, 5]: yes | binding [3, 4]: no
Structure (SMILES): COc1cc(NS(=O)(=O)c2ccc(N)cc2)nc(OC)n1

binding [1, 5]: yes | binding ([2]; 500 ng/mL kanamycin with 500 ng/mL ampicillin, mixed aptamers): no
Structure (SMILES): NC[C@H]1O[C@H](O[C@H]2[C@H](O)[C@@H](O[C@H]3O[C@H](CO)[C@@H](O)[C@H](N)[C@H]3O)[C@H](N)C[C@@H]2N)[C@H](O)[C@@H](O)[C@@H]1O

binding ([1]; 500 ng/mL, mixed aptamers, weak signal change only): weak | binding ([2]; 500 ng/mL, with kanamycin none, alone weak signal change): no | binding [3, 5]: yes
Structure (SMILES): CC1(C)S[C@@H]2[C@H](NC(=O)[C@H](N)c3ccccc3)C(=O)N2[C@H]1C(=O)O
